Like-named read-outs stand apart in the source and are kept apart here.

Results on five molecules are retold here after article PMC10300901, “Anticancer Activity and Mode of Action of Cu(II), Zn(II), and Mn(II) Complexes with 5-Chloro-2-N-(2-quinolylmethylene)aminophenol” (Molecules, 2023).

The subject of one data set is MCF-7. Briefly: MTT cytotoxicity assay, MCF-7. The data set is classed as cell-based.
The next data set deals with Hela. Briefly: MTT cytotoxicity assay, Hela. The data set is classed as cell-based. For orientation: Tetrazolium assays rely on reduction of a dye to a coloured formazan, in cell work by metabolically active cells.
The subject of another data set is WI-38. Description: MTT cytotoxicity assay, WI-38. The format is cell-based.
The test system of data set [1] is A549 cells. Description: MTT cytotoxicity assay, A549.
Experimental: (§2) The cytotoxicity of C1–C3 was determined using an MTT (3-(4,5-dimethylthiazol-2-yl)-2,5-diphenyltetrazolium bromide) assay on various cancer cells.
For data set [2], the system named is cisplatin-resistant lung cancer (A549cisR) cells. Description: MTT cytotoxicity assay, A549cisR. The data set is classed as cell-based.
Experimental: as §2
A short description of data set [3]: Solubility in saline (0.9% sodium chloride solution). The data set is classed as physicochemical.
The test system of data set [4] is A549 cells. Briefly: Transwell invasion assay. As to conditions: 24 h. The format is cell-based. As for the experimental part: (§1) Cell migration is crucial to cancer development and metastasis; metastasis is a major cause of many cancer-related deaths. The migration is very usually assessed by the application of the wound-healing assay, which involves the creation of an artificial gap in a cancer cell monolayer, followed by observation of the area covered with migrating cells. Therefore, the inhibiting effect of C1 on cancer cell migration was evaluated using a wound-healing assay. […] In addition, the effect of C1 on A549 cell invasion was investigated using a transwell assay.
The effect of C1 on tumor cell invasiveness was assessed by transwell assay. In brief, the transwell chamber was pre-coated with 70 μL diluted matrigel for 8 h at 37 °C. A549 cells were seeded to the upper chamber, and then C1 was added to the chamber. After 24 h of incubation, the chambers were washed, stained with 0.5% crystal violet for 20 min, and captured using an inverted microscope.

Another data set has as its system A549 tumor. Briefly: In vivo antitumor experiment in mice bearing A549 tumors. Also on record: species or system BALB/C nude mice. Particulars: for Tumor growth inhibition rate: two weeks, mice bearing A549 tumors. The procedure: Based on these promising biological properties, the in vivo therapeutic efficacy of C1 was further investigated in mice bearing A549 tumors. […] Generally, body weight change is considered a key indicator of systemic toxicity.
In addition, TUNEL (terminal deoxynucleotidyl transferase dUTP nick end labeling) staining of tumor tissue sections was performed to examine the effect of C1 on apoptosis in vivo. […] Histological analyses were carried out using H&E (hematoxylin and eosin) staining to evaluate the toxicity of C1 for the major organ.
BALB/C nude mice (6–8 weeks old, 18–22 g) were purchased from Hunan SJA Laboratory Animal Co., Ltd. An amount of 200 μL of A549 cells (containing 2 × 10^6 cells) were subcutaneously injected into the left flank of the mice. The mice were randomly divided into 3 groups when the average tumor size reached 100 mm^3. Then, the mice were treated with saline and C1 (2.5 and 5 mg/kg) for two weeks. C1 was dissolved in saline. During the treatment, the tumor volume and body weight of mice were measured every two days. The major organs (heart, kidney, and liver) and tumor tissues were harvested and sliced for H&E staining and TUNEL staining, respectively.

In data set [5] the test system is A549 cells. Description: Cell apoptosis analysis (Annexin V/PI, flow cytometry). The data set is classed as cell-based. Particulars: 24 h, control 4.0%. As for the experimental part:
Then, the effect of C1 on A549 cells apoptosis was stained with Annexin V/PI and analyzed using flow cytometry.
The A549 cells were placed in 6-well plates and incubated overnight. The cells were treated with C1 (4 μM and 8 μM) and incubated for 24 h. Subsequently, the cells were harvested and stained with Annexin V/PI for 20 min. The samples were detected by flow cytometry.
In general terms: A flow cytometer gives signals particle by particle.

Data set [6] relates to A549 cells. Briefly: β-Galactosidase staining assay (senescence). The format is cell-based. Particulars: 24 h treatment. The procedure:
Senescence is a permanent cellular stage involving cell cycle arrest, which is a potential strategy against cancer. We measured the impact of C1 on cell senescence in A549 cells using a β-galactosidase staining assay. The senescent cells were dyed blue by β-galactosidase.
A549 cells were cultured in 6-well plates and incubated overnight. After C1 treatment for 24 h, the cells were fixed. Then, 20 min later, the cells were washed and stained with β-galactosidase for 48 h. The stained cells were observed and captured using an inverted microscope.

Data set [7] has as its system A549 cells. Description: Cell cycle analysis (PI, flow cytometry). The format is cell-based. As to conditions: 48 h. The procedure:
The influence of metal compounds on cell cycle arrest contributes to their anticancer activity. To determine the effect of C1 on the cell cycle, the distribution of the cell cycle of C1-treated A549 cells was detected using flow cytometry.
The A549 cells were seeded into 10 cm dishes and incubated overnight. Subsequently, the cells were treated with C1 (4 μM and 8 μM). After 48 h, the cells were collected, fixed with 75% ethanol overnight, stained with PI for 20 min, and measured by flow cytometry.

Another data set has as its system CT-DNA. Description: EB-DNA fluorescence-quenching assay. The data set is classed as binding. Particulars: C1 0−16 μM, 8 μM EB, 10 μM CT-DNA, pH 7.2 Tris–HCl. The procedure:
Competitive studies with ethidium bromide (EB) have been widely used in fluorescence-quenching assays to evaluate the interaction between DNA and small molecules. Therefore, to further explore the binding property of C1 and DNA, fluorescence quenching was carried out to explore the interaction mode.
The fluorescence spectrum was performed to measure the interaction mode of C1 (0−16 μM) and EB-DNA (8 μM ethidium bromide added into 10 μM CT-DNA) in a pH 7.2 Tris–HCl buffer. The EB-DNA was excited at 510 nm, and for the emission spectra, the emission range was set to 530–750 nm. C1 was gradually added to the EB-DNA solution.

The test system of data set [8] is A549 cells. Description: Mitochondrial membrane potential (JC-1, flow cytometry). The format is cell-based. As to conditions: C1 8 μM, 24 h. As for the experimental part:
Mitochondria play a key role in death signals through intrinsic and extrinsic apoptosis. Therefore, after exposure to C1, A549 cells were stained with a JC-1 probe to evaluate the mitochondrial membrane potential (ΔΨm) using flow cytometry.
Exponentially growing A549 cells were cultured in 6-well plates. Subsequently, C1 (4 μM and 8 μM) was exposed to the cells for 24 h. The cells were stained with JC-1 probe and analyzed by flow cytometry.

In data set [9] the test system is A549 cells. Briefly: Measurement of cellular ROS (H2DCF-DA, flow cytometry). The format is cell-based. As to conditions: 4 μM and 8 μM, 24 h, vs control. The procedure:
A change in the mitochondrial membrane potential results in mitochondrial dysfunction, which can induce reactive oxygen species (ROS) production. Based on the above information, we detected the ROS level in A549 cells using flow cytometry.
The ROS in A549 cells was analyzed by flow cytometry. After pretreatment with C1 (4 μM and 8 μM) for 24 h, the A549 cells were collected and stained with H2DCF-DA. After 20 min, the samples were measured using a flow cytometer.

The subject of data set [10] is A549 cells. Description: Comet assay (DNA damage). The format is cell-based. The procedure:
Excessive intracellular ROS can cause DNA damage and cell death. Next, a comet assay was performed to determine whether C1 caused DNA damage. Undamaged DNA cannot migrate, and fluorescence is only confined to the nucleus. In DNA-damaged cells, negatively charged DNA fragments are then released from the nucleus and migrate towards the anode. There was no comet-like cell observed in the control group. In comparison, C1-treated cells with longer tails (white arrows) were observed, and a higher percentage, indicating the existence of severe DNA fragmentation (Figure 7B).
The A549 cells were seed into 6-well plates and treated with C1. A mixture of 10 μL cell suspension and 70 μL low-melting-point agarose (1%) were placed on a glass microscope slide (pre-coated with 1% normal-melting-point agarose) and covered with coverslips. The cells were separate by gel electrophoresis, stained with PI, and captured using an inverted fluorescence microscope.

Data set [11] relates to A549 cells. Description: Wound-healing assay (cell migration). The format is cell-based. As to conditions: 2 μM and 4 μM, 24 h. The procedure: as §1
To evaluate the impact of C1 on cell migration, a wound-healing assay was carried out. A549 cells were seeded into 6-well plates and incubated overnight at 37 °C. C1 was dissolved in saline. Subsequently, scratch wounds were performed in the monolayer of cells using sterile toothpicks, and then the cells were treated with the Cu complex (2 μM and 4 μM). The cells were captured using an inverted microscope at 0 and 24 h.

Experimental for Hela: as §2
Experimental for MCF-7: as §2
Experimental for WI-38: as §2

As to “5-chloro-2-N-(2-quinolylmethylene)aminophenoxide-Zn(II)-chloride/pyridine [C2]”, the IC50 (in general, the point on the concentration scale where inhibition reaches its midpoint) in the data set on MCF-7 amounted to 23.6 ± 0.98 µM; in the data set with Hela, 22.8 ± 0.8 µM; with WI-38, 34 ± 1.06 µM; in the data set with A549 cells [1] (read-out: IC50 A549, MTT assay), 18.3 ± 0.52 µM; in data set [2] it was 29.3 ± 0.85 µM.

Turning to `O.O.[Cl][Mn][O]c1cc(Cl)ccc1N=Cc1ccc2ccccc2n1` [C3, 5-chloro-2-N-(2-quinolylmethylene)aminophenoxide-Mn(II)-chloride/dihydrate], the IC50 with MCF-7 was > 40 µM; in the data set on Hela it was > 40 µM; in the data set with WI-38 it was > 40 µM; in the data set with A549 cells [1] (read-out: IC50 A549, MTT assay) it was 33.6 ± 0.98 µM; in [2], > 40 µM. Moreover, the Solubility in saline in data set [3] is ≥ 800 µg/mL.

`N.N.[Cl][Pt][Cl]` [Cisplatin, reference compound]: the IC50 in the data set with MCF-7 is 14.5 ± 0.48 µM; with Hela, 15.3 ± 0.51 µM; in the data set on WI-38 it was 9.61 ± 0.58 µM; in the data set with A549 cells [1] (read-out: IC50 A549, MTT assay) it was 12.5 ± 0.45 µM; in data set [2] it was > 40 µM.

Regarding `[Cl][Cu][O]c1cc(Cl)ccc1N=Cc1ccc2ccccc2n1` [C1, 5-chloro-2-N-(2-quinolylmethylene)aminophenoxide-Cu(II)-chloride], the “Effect on invasion of A549 cells” value in the data set with A549 cells [4] is given as “could inhibit the invasion abilities of A549 cells”. Also, the “Tumor growth inhibition rate” value is 46.3% with A549 tumor (C1 2.5 mg/kg) and 63.5% in the data set with A549 tumor (C1 5 mg/kg). Besides, in the data set on A549 tumor (C1 2.5 and 5 mg/kg, vs control group), the Body weight change result is given as “no apparent weight loss”. The “Histology of heart, liver, and kidney (H&E staining)” value in the data set on A549 tumor (after treatment with C1) is “no pathological alterations or other abnormalities”. In addition, the “Apoptosis in tumor tissue (TUNEL staining)” value with A549 tumor (tumor tissue sections) is “notable cell apoptosis”. In addition, the IC50 in the data set with MCF-7 was found to be 5.3 ± 0.35 µM; in the data set on Hela, 6.31 ± 0.32 µM; in the data set on WI-38, 10.2 ± 0.43 µM; in the data set on A549 cells [1] (read-out: IC50 A549, MTT assay), 3.93 ± 0.28 µM; in data set [2] it was 6.79 ± 0.38 µM. The “Population of apoptotic cells” value with A549 cells [5] (C1 4 μM) turned out to be 15.0%; in the data set with A549 cells [5] (C1 8 μM), 23.8%. Also, in data set [3], the Solubility in saline was ≥ 1900 µg/mL. The “Cell senescence (β-galactosidase staining)” value in the data set with A549 cells [6] is reported as “can induce A549 cell senescence”. Also, the “Percentage of cells in G0/G1 phase” value with A549 cells [7] (C1 4 μM) amounted to 48.85%; with A549 cells [7] (C1 8 μM) it was 54.45%. Also, the “Percentage of cells in G2/M phase” value in the data set with A549 cells [7] (C1 4 μM) is reported as 7.98%; in the data set with A549 cells [7] (C1 8 μM), 9.96%. Further, the figures for the “Percentage of cells in S phase” value with A549 cells [7] (C1 4 μM) and with A549 cells [7] (C1 8 μM) were 43.17% and 35.59%, respectively. For the same molecule, the “DNA binding mode (EB displacement)” value with CT-DNA is “binds to DNA in an intercalative binding mode”. Moreover, in the data set on A549 cells [8], the “ΔΨm of A549 cells reduced by (JC-1)” value turned out to be 23.7%. Moreover, the “Intracellular ROS level” value with A549 cells [9] was “significantly increased”. The “DNA damage (comet assay)” value with A549 cells [10] is “induces DNA damage”. Further, the “Effect on migration of A549 cells” value in the data set with A549 cells [11] is on record as “strongly inhibited the migration ability of A549 cells”.

In the case of `Oc1cc(Cl)ccc1/N=C/c1ccc2ccccc2n1` [L, 5-chloro-2-N-(2-quinolylmethylene) aminophenol], the IC50 is > 40 µM with MCF-7 (Homo sapiens, MCF7); > 40 µM in the data set on Hela (Homo sapiens, HeLa); > 40 µM in the data set with WI-38 (Homo sapiens, WI-38); > 40 µM with A549 cells [1] (Homo sapiens, A549, read-out: IC50 A549); > 40 µM in data set [2].
